Experimental data published in ChEMBL document CHEMBL4118093, “Identification of a Hit Series of Antileishmanial Compounds through the Use of Mixture-Based Libraries” (ACS Med Chem Lett, 2017).

Assays:
[1] = tested on: J774; assay: Cytotoxicity against mouse J774 cells
[2] = tested on: Leishmania donovani; assay: Antileishmanial activity against Leishmania donovani axenic amastigotes at 2.5 uM after 72 hrs by Celltiter reagent based assay relative to control; type: functional
[3] = Selectivity index, ratio of IC50 for mouse J774 cells to IC50 for Leishmania donovani axenic amastigotes infected in mouse J774 cells; type: toxicity, cell-based; conditions: read-out: Ratio IC50
[4] = tested on: Leishmania donovani; assay: Antileishmanial activity against Leishmania donovani axenic amastigotes at 5 uM after 72 hrs by Celltiter reagent based assay relative to control; type: functional
[5] = tested on: Leishmania donovani; assay: Antileishmanial activity against Leishmania donovani axenic amastigotes infected in mouse J774 cells measured after 72 hrs by Draq5 staining based high content screening assay; type: functional, organism-based; conditions: J774, 72 h

CCCCCCCN1C(=N)N(CCCC[C@H]2CNC(=N)N2CCCCC2CCCCC2)C[C@@H]1CC1CCCCC1
IC50 [1]: 25 µM
inhibition at 2.5 µM [2]: 97%
selectivity ratio [3]: 36
inhibition at 5 µM [4]: 95%
IC50 [5]: 0.7 µM

CCCCCCCN1C(=N)N(CCCC[C@H]2CNC(=N)N2CCc2cccc(C(F)(F)F)c2)C[C@@H]1CC1CCCCC1
IC50 [1]: 50 µM
inhibition at 2.5 µM [2]: 0%
selectivity ratio [3]: < 10
inhibition at 5 µM [4]: 6%
IC50 [5]: > 5 µM

CCCC[C@H]1CN(CCCC[C@H]2CNC(=N)N2CCC23CC4CC(CC(C4)C2)C3)C(=N)N1CCCCC1CCCCC1
IC50 [1]: 27 µM
inhibition at 2.5 µM [2]: 11%
selectivity ratio [3]: 41
inhibition at 5 µM [4]: 8%
IC50 [5]: 0.6 µM

N=C1NC[C@H](CCCCN2C[C@H](CC3CCCCC3)N(CCCCC3CCCCC3)C2=N)N1CCc1cccc(C(F)(F)F)c1
IC50 [1]: 26 µM
inhibition at 2.5 µM [2]: 0%
selectivity ratio [3]: 14
inhibition at 5 µM [4]: 94%
IC50 [5]: 1.3 µM

CCCCCCCN1C(=N)N(CCCC[C@H]2CNC(=N)N2CCC23CC4CC(CC(C4)C2)C3)C[C@H]1Cc1ccc2ccccc2c1
IC50 [1]: 36 µM
inhibition at 2.5 µM [2]: 0%
selectivity ratio [3]: 57
inhibition at 5 µM [4]: 0%
IC50 [5]: 0.6 µM

N=C1NC[C@H](CCCCN2C[C@@H](Cc3ccc4ccccc4c3)N(CCCCC3CCCCC3)C2=N)N1CCCCC1CCCCC1
IC50 [1]: 50 µM
inhibition at 2.5 µM [2]: 0%
selectivity ratio [3]: 56
inhibition at 5 µM [4]: 0%
IC50 [5]: 0.9 µM

N=C1NC[C@H](CCCCN2C[C@H](CC3CCCCC3)N(CCc3ccc(-c4ccccc4)cc3)C2=N)N1CCCCC1CCCCC1
IC50 [1]: 20 µM
inhibition at 2.5 µM [2]: 70%
selectivity ratio [3]: 69
inhibition at 5 µM [4]: 95%
IC50 [5]: 0.3 µM

N=C1NC[C@H](CCCCN2C[C@H](CC3CCCCC3)N(CCCCC3CCCCC3)C2=N)N1CCCCC1CCCCC1
IC50 [1]: 24 µM
inhibition at 2.5 µM [2]: 77%
selectivity ratio [3]: < 5
inhibition at 5 µM [4]: 95%
IC50 [5]: > 5 µM

CCCCCCCN1C(=N)N(CCCC[C@H]2CNC(=N)N2CCC23CC4CC(CC(C4)C2)C3)C[C@@H]1CCCC
IC50 [1]: 32 µM
inhibition at 2.5 µM [2]: 96%
selectivity ratio [3]: < 6
inhibition at 5 µM [4]: 94%
IC50 [5]: > 5 µM
